# Experimental data taken from patent publication US6083920A, “Compositions for modulating intracellular inositol trisphosphate concentration” (priority 1996, dated 2000).
# “And” between values parts separate entries of the source, which are not always exact repeats. Equal values may be shown once. “Also recorded” adds a separate entry of the source.
# Legend:
# [1] = system: metabotropic glutamate receptor; experiment: Behavioral analysis after ICV infusion (quisqualate excitotoxicity); format: in vivo, male F344 rats; details: for effective dose: ICV, pilot testing; for death, cases: 120 min; for convulsant behavior, compound alone: no quisqualate
# Method: The animals used in this experiment were male F344 rats (Charles River Breeding Laboratories). The animals were housed individually, exposed to a 12-hour light-dark cycle, and allowed free access to food and water. The animals weighed approximately 250 g at the beginning of each experiment and were weighed daily. In addition, the animals were habituated to handling before each experiment.
# Before administering various compounds, the animals were anesthetized with sodium pentobarbital (50 mg/kg, i.p.) and positioned in a sterotaxic instrument. A 26 gauge cannula was inserted into the cerebral ventricle at the following co-ordinates: 1.0 mm posterior to bregma, 1.5 mm lateral to the midline, and 4.0 mm below the dorsal surface of the neocortex. Cannulas were capped and fixed in place with dental cement. One week after cannulation, 10 μl of each of the treatment drugs was infused, ICV (i.e. into the ventricals of the brain), via a micropump at a rate of 10 μl/min. For this procedure, the animals were lightly restrained and unanesthetized. Following administration of the compound, the infusion cannula remained in position for one minute, after which the permanent in situ cannula was capped.
# The compounds administered were obtained from a commercial supplier (Sigma Chemical Co., St. Louis, Mo.) and dissolved in saline prior to injection. […]
# Pilot studies identified several specific behavioral measures that could be used to indicate excessive activation of the metabotropic receptor (see Table 3). […] The experiments that follow were based on an analysis of these behaviors over a two hour period after administration of the compounds of the invention. Behavioral observation was carried out by two trained observers, who worked independently of one another and who were blind to the experimental groups. […] Frequency and duration means were computed by subtracting pre-infusion means from post-infusion means.
# Some of the experiments that were performed first were carried out to determine the amount of quisqualate required to produce behavioral and histological changes and the amount of lysosphingolipids that could effectively prevent or reverse these effects. Table 3 outlines the behavioral responses of rats to various doses of quisqualate (injected as described above) and the associated histological changes. The behaviors are listed as they occur chronologically. The limb clasp and reflex tests indicate the degree of decortication. A limb clasp or placement score of zero is normal, and a score of 3 is severely abnormal.
# The data shown in Table 4 represents the observations of pilot studies aimed at determining the effect (on behavior) of lysosphingolipids infused directly into the lateral ventricles of the brain 30 minutes prior to infusion of quisqualate.
# The experiment began one week after ICV cannulation. Animals (n=6 per group) were randomly allocated to one of 8 treatment groups: (1) saline, (2) quisqualate at 225 nmoles, (3) psychosine at 125 nmoles, (4) lysosphingomyelin at 125 nmoles, (5) lysosphingomyelin at 150 nmoles, (6) quisqualate at 225 nmoles and psychosine at 125 nmoles, (7) quisqualate at 225 nmoles and lysosphingomyelin at 125 nmoles, and (8) quisqualate at 225 nmoles and lysosphingomyelin at 150 nmoles. Following the baseline observation period, animals received the first of two ICV infusions (all infusions were of a 10 μl volume that was administered over a 1 minute period). For the first five groups listed above, this consisted of saline (10 μl/minute), for the following 3 groups the infusions were psychosine at 125 nmoles, lysosphingomyelin at 125 nmoles, or Iysosphingomyelin at 150 nmoles, respectively. Thirty minutes later, all animals received the second infusion which, for the first five groups listed above, consisted of saline, quisqualate at 225 nmoles, psychosine at 125 nmoles, lysosphingomyelin at 125 mrnoles, and lysosphingomyelin at 150 nmoles respectively. […]
# [2] = Lysosphingolipid loading of isolated neuronal plasma membrane; format: in vitro ADME, chick; details: Plasma Membrane Suspension, 10 μmolar exposure
# From the text: Total lipids were removed from the neuron samples by repeated extraction with chloroforn:methanol (2:1, vol:vol). […] The recovered lysosphingolipids were stably tagged with NBDZF by the rapid procedure of Nozowa et al. (supra). The fluorescence tagged neuronal lysosphingolipids were separated in parallel with reference standards NBDZF-Sph, NBDZF-Psy, and NBDZF-Lsm on high performance silica gel thin layer chromatography plates with acetonitrile:H2 O (10:0.5, vol:vol). The highly fluorescent, well separated bands were scraped from the plate. The fluorescence tagged lysosphingolipids are eluted from the scraped silica gel with methanol:1 N HCl (1:0.02, vol:vol). The fluorescence tagged lysosphingolipid eluates were quantitated against reference standards by fluorescence measurement in a Perkin-Elmer LS-5 Fluorescence Spectrometer.
# Physiologically active phospholipase C is present on the endofacial portion of the plasma membrane. A procedure for examining its activity in an intact membrane is provided. […] One hundred Petri dishes of cultured cortical neurons were incubated overnight with 50 μCi [^3 H]myo-inositol per mL of culture medium. […] The collected neurons were homogenized in 5 mL 0.32 M sucrose and centrifuged at 1000×g for 15 minutes. The supernatant was layered on top of 2 ml 1.2 M sucrose and centrifuged at 300,000×g for 20 minutes. The sedimented pellet was resuspended by sonication for 10 seconds in 50 mM Tris buffer (pH 7.4), containing 0.3 μM CaCl2, 1 mM MgCl2, and 0.01% ascorbic acid.
# The suspended plasma membrane preparation was apportioned into 250 μl samples, each providing approximately 100 μg membrane protein. Sphingosine, psychosine, and lysosphingomyelin were added to each plasma membrane sample. […] Samples were analyzed for lysosphingolipid loading (i.e., membrane lysosphingolipid content following exposure to exogenous sphingolipid) by fluorescence tagging. […] Values are reported in pmoles lysosphingolipid/mg plasma membrane protein.
# [3] = system: phospholipase C isoforms beta, delta, and gamma; details: for effect on KM for substrate phosphatidylinositol bis-phosphate: 10 μM lysocerebroside, 5 μM lysosphingomyelin
# Method: The effects of sphingosine, lysocerebroside, and lysosphingomyelin on the kinetics of pure, immunologically isolated phospholipase C isoforms beta, delta, and gamma (which are commercially available) was examined. For each isoform, 10 μM sphingosine was added to a reaction medium consisting of 1 μg phospholipase C isoform/ml, Tris-malate buffer (50 mM, pH 7.0) containing 100 μM phosphatidyl inositol bis-phosphate tri-ammonium salt, 0.01 μCi tritium labeled phosphatidyl inositol bis-phosphate, 100 mM NaCl, 10 mM CaCl2, and 5 mM 2-merceptoethanol.
# [4] = Quisqualate 225 nmoles ICV, rat
# [5] = Quisqualate 250 nmoles ICV, rat
# [6] = 10 μM lysocerebroside or 5 μM lysosphingomyelin
smiles,measurement,setting,value
"N[C@@H](Cn1oc(=O)[nH]c1=O)C(=O)O [Quisqualate, quisqualate]",effective dose,[1]; rat,225 nmol
same,BEHAVIOR,"[1]; Quisqualate 100 nmoles ICV, rat",teeth chatter; also recorded: mild scratching; also recorded: hind leg weakness 60 minutes
same,placement and clasp reflex score,"[1]; Quisqualate 100 nmoles ICV, score zero is normal, 3 is severely abnormal",0
same,BEHAVIOR,"[1]; Quisqualate 150 nmoles ICV, rat",teeth chatter; also recorded: localized twitches; also recorded: mild hyperactivity walking in circles; also recorded: hind leg weakness for 60 minutes
same,BEHAVIOR,"[1]; Quisqualate 150 nmoles ICV, rat, listed as quisqualate",increase in activity and teeth chattering
same,placement and clasp reflex score,"[1]; Quisqualate 150 nmoles ICV, score zero is normal, 3 is severely abnormal",0
same,BEHAVIOR,"[1]; Quisqualate 200 nmoles ICV, rat",teeth chatter; also recorded: occasional mild convulsions; also recorded: hyperactivity - circle walking; also recorded: episodic akinesia/tonic immobility; also recorded: hind leg weakness
same,limb clasp and placement reflex score,"[1]; Quisqualate 200 nmoles ICV, score zero is normal, 3 is severely abnormal",0
same,BEHAVIOR,[1]; [4],teeth chatter; also recorded: hind leg paralysis; also recorded: hyperactivity/walk in circles; also recorded: full body convulsions - moderate; also recorded: localized spasms twitching/jerking; also recorded: episodic akinesia/tonic immobility; also recorded: respiratory distress; also recorded: foaming at mouth
same,"death, cases",[1]; [4],60%
same,BEHAVIOR,"[1]; Quisqualate 225 nmoles ICV, rat, listed as quisqualate",moderate convulsions
same,placement and clasp reflex score,"[1]; Quisqualate 225 nmoles ICV, score zero is normal, 3 is severely abnormal",1-2
same,BEHAVIOR,[1]; [5],vocalization; also recorded: teeth chattering; also recorded: scratching; also recorded: localized spasms jerking/twitching; also recorded: full body convulsions-severe/repeated; also recorded: foaming at mouth; also recorded: respiratory distress
same,"death, cases",[1]; [5],75%
same,BEHAVIOR,"[1]; Quisqualate 250 nmoles ICV, rat, listed as quisqualate",severe convulsions and death
same,placement and clasp reflex score,"[1]; Quisqualate 250 nmoles ICV, score zero is normal, 3 is severely abnormal",3
same,BEHAVIOR,"[1]; Quisqualate 1 μmoles ICV, rat",severe repeated full body convulsions; also recorded: severe scratching; also recorded: severe teeth chattering; also recorded: foaming at mouth
same,time to death,"[1]; Quisqualate 1 μmoles ICV, rat",5 to 15 min
same,"death, cases","[1]; Quisqualate 1 μmoles ICV, rat",100%
same,BEHAVIOR,"[1]; Quisqualate 500 μmoles ICV, rat",vocalization
same,"duration of teeth chattering, akinesia and mobilization versus lysosphingolipid-alone groups and quisqualate + lysosphingomyelin 150 nmoles",[1]; quisqualate alone 225 nmoles ICV,significantly (p<.01) more time engaged in these behaviors
same,number of convulsions/spasms compared to all other groups,"[1]; quisqualate alone at 225 nmoles ICV, 2 hours observation, n=6",significantly (p.<01) more convulsions/spasms
"CCCCCCCCCCCCC/C=C/[C@@H](O)[C@@H](N)COP(=O)([O-])OCC[N+](C)(C)C [lysosphingomyelin, sphingosyl phosphoryicholine]","membrane lysosphingolipid content, 0 hours of incubation",[2],5 ± 1 pmoles lysosphingolipid/mg pla
same,"membrane lysosphingolipid content, 0.5 hours of incubation",[2],65 ± 15 pmoles lysosphingolipid/mg pla
same,"membrane lysosphingolipid content, 1.0 hours of incubation",[2],110 ± 15 pmoles lysosphingolipid/mg pla
same,"membrane lysosphingolipid content, 2.0 hours of incubation",[2],120 ± 10 pmoles lysosphingolipid/mg pla
same,"membrane lysosphingolipid content, 3.0 hours of incubation",[2],145 ± 25 pmoles lysosphingolipid/mg pla
same,"convulsant behavior, compound alone",[1]; 125 nmoles ICV,displayed no convulsant behavior
same,"convulsant behavior, compound alone",[1]; 150 nmoles ICV,displayed no convulsant behavior
same,effective dose,[1]; rat,125 nmol and 150 nmol
same,sedation produced by the lysosphingolipid,[1]; Lysosphingomyelin 150 nmoles ICV,mild sedation
same,behavioral or neurotoxic effects of the compound itself,[1]; doses as high as 125 nmoles per animal ICV,no behavioral or neurotoxic effects were observed
same,behavioral and histological changes caused by quisqualate,"[1]; pretreated with 125 nmoles ICV, rat",absent
same,number of convulsions or spasms,"[1]; pretreatment 125 nmoles ICV 30 minutes before quisqualate 225 nmoles, n=6",significantly (p<01) attenuated
same,number of convulsions or spasms,"[1]; pretreatment 150 nmoles ICV 30 minutes before quisqualate 225 nmoles, n=6",significantly (p<01) attenuated
same,"time quisqualate-alone animals spent in teeth chattering, akinesia and mobilization compared with this group",[1]; quisqualate 225 nmoles and lysophingomyelin 150 nmoles ICV,significantly (p<.01) more time
same,diminution in Vmax,[3]; [6],60%±10%
same,increase in calcium ion concentration required for optimal activity,[3]; [6],5 fold
same,effect on KM for substrate phosphatidylinositol bis-phosphate,[3]; 10 μM sphingosine,no change
CCCCCCCCCCCCC/C=C/[C@@H](O)[C@@H](N)CO [sphingosine],"membrane lysosphingolipid content, 0 hours of incubation",[2],105 ± 5 pmoles lysosphingolipid/mg pla
same,"membrane lysosphingolipid content, 0.5 hours of incubation",[2],113 ± 15 pmoles lysosphingolipid/mg pla
same,"membrane lysosphingolipid content, 1.0 hours of incubation",[2],140 ± 15 pmoles lysosphingolipid/mg pla
same,"membrane lysosphingolipid content, 2.0 hours of incubation",[2],165 ± 20 pmoles lysosphingolipid/mg pla
same,"membrane lysosphingolipid content, 3.0 hours of incubation",[2],175 ± 25 pmoles lysosphingolipid/mg pla
same,calcium ion concentration required for optimal activity,[3]; 10 μM sphingosine,decrease
same,effect on KM for substrate phosphatidylinositol bis-phosphate,[3]; 10 μM sphingosine,no effect
